# Publication PMC4965013, “Open Source Drug Discovery with the Malaria Box Compound Collection for Neglected Diseases and Beyond” (PLoS Pathogens, 2016)
# Like-named read-outs stand apart in the source and are kept apart here.
# What was measured:
# [1] = system: P. falciparum NF54 GFP-Pfs16 gametocytes stage I-III; conditions: ref [64]; read-out: gametocyte early stage (I-III) GFP-MTR EC50; cited from earlier work
# [2] = system: P. falciparum 3D7 or K1; test: Asexual Blood Stage Imaging Assay (DAPI) V. Avery; format: cell-based; conditions: Plasmodium falciparum
# [3] = system: P. falciparum FCR3; test: FCR3 SYBR Green I assay Horii; format: cell-based; conditions: Plasmodium falciparum, FCR3, 72 h; read-out: P. falciparum FCR3 asexual blood stage IC50 Horii
# Method: Column T: Horii group (data presented first in this paper). IC50 against asexual blood stage P. falciparum FCR3. Methods: For measurement of anti-Plasmodium activities, P. falciparum FCR3 strain was cultured in the RPMI 1640 medium supplemented with 10% human type A serum from in-house volunteers at 37°C, 5% O2 and 5% CO2 (0.5% parasitemia and 2% hematocrit) for 72 h in the presence of the compounds (DMSO final concentration, 0.25%). The growth inhibition of P. falciparum was determined using a SYBR Green I assay. Lysis buffer (20 mM Tris (pH 7.5), 5 mM EDTA, 0.008% (w/v) saponin and 0.08% (v/v) Triton X-100) containing SYBR Green I was added to each well and incubated at room temperature and dark condition for 1-5 hours. After the incubation, amounts of parasite DNA were measured as fluorescence at 485 nm of excitation and 530 nm of emission. An unpublished antimalarial compound was used as positive control in the assay.
# [4] = system: P. falciparum NF54Pfs16 gametocytes stage I-III; conditions: ref [61]; read-out: gametocyte early stage (I-III) luciferase EC50; cited from earlier work
# [5] = system: P. falciparum NF54 GFP-Pfs16 gametocytes stage IV-V; conditions: ref [64]; read-out: gametocyte late stage (IV-V) GFP-MTR EC50; cited from earlier work
# [6] = system: P. falciparum NF54Pfs16 gametocytes stage IV-V; conditions: cited from earlier work
# [7] = system: P. falciparum HB3; test: Stage-specificity / mitochondrial integrity image assay Ayong; format: cell-based; conditions: 10µM
# [8] = system: P. falciparum 3D7, HB3, Dd2, W2, K1, FCR3; test: Asexual EC50 image assay, six strains, Ayong; format: cell-based; conditions: Plasmodium falciparum
# [9] = system: P. falciparum 3D7 trophozoites; test: Metabolomic fingerprint profiling LC-MS; format: cell-based, Plasmodium falciparum; parameters: UDP-D-glucose / ADP-D-glucose: unit not given here
# [10] = system: Atg8-Atg3; parameters: method as in ref [38] (a number printed in a supplementary file, which may have a reference list of its own: not looked up in the article's list); conditions: ref [38]; cited from earlier work
# [11] = system: Saccharomyces cerevisiae strain WC081; test: Yeast disc diffusion in combination with artemisinin; format: cell-based; conditions: 10 µL of 1 mM on disc, 0.2 µM artemisinin, read-out: larger zone size with artemisinin (SCG+artemisinin minus SCG)
# From the text: Yeast screening for enhanced drug effects in combination with artemisinin, Jensen group (data presented first in this paper). […] Yeast (S. cerevisiae) was used as a proxy for P. falciparum, because the killing of S. cerevisiae and P. falciparum appear to have similarities. Saccharomyces cerevisiae strain WC081 (Mat a, leu2∆0, lys2∆0, ura3∆0, his3∆1, pdr1∆::HIS3, pdr3∆::kanMX4) was utilized and was originally derived from strain BY4742. Regulators of Multi-drug resistance transporters have been deleted from this strain to enhance the toxicity of compounds. Assay utilized the disc diffusion method with the observance of a clear zone indicating inhibition of growth. Synthetic complete medium containing 3% glycerol as a carbon source (SCG) was used in each assay. 10 µL of each compound at 1 mM was added to a paper disc which was placed on SCG and SCG^+artemisinin (0.2 µM) plates seeded with 10e6 yeast cells. Plates were incubated at 30 °C for 5 days and clear zones were measured. Compounds that produced a larger clear zone in the presence of artemisinin were considered to have an additive interaction with artemisinin. Results are reported as diameter of clear zone on SCG^+artemisinin plates - diameter of clear zone on SCG plates without artemisinin.
# [12] = system: P. falciparum; test: EC50 listed in S2 Table Metabolomics (used to set the concentration tested); format: cell-based; conditions: Plasmodium falciparum; EC50 used for Factor_XEC50 in metabolomics; read-out: EC50_nM
# [13] = system: P. falciparum 3D7; test: [3H]-hypoxanthine growth inhibition, modified HCO3- or O2; format: cell-based; conditions: for IC50: Plasmodium falciparum
# [14] = system: P. falciparum Dd2; test: Malaria Sybr Green I Fluorescence assay Dd2 Horrocks; format: cell-based; conditions: Plasmodium falciparum, DD2, 48 h; read-out: P. falciparum Dd2 asexual blood stage EC50 Horrocks
# Method: Column S: Horrocks group (data presented first in this paper). Asexual Dd2 inhibition of growth (IC50s): IC50 for the Dd2 clone of Plasmodium falciparum were determined using the Malaria Sybr Green I Fluorescence assay. Drug assays were initiated using a 2% trophozoite stage parasitaemia and 2% hematocrit and fluorescence measured after 48 h as fully described in Hasenkamp et al.[53]. Log dose-response curves were plotted in GraphPad Prism (v5.0). The controls for Dd2 using our 48hr Sybr Green I assay were (rounded to nearest nM): Chloroquine 209nM, Mefloquine 11nM, Quinine 246nM, Dihydroartemisinin 4nM, Artemether 10nM, Atovaquone 3nM.
# [15] = system: T. b. brucei Squib 427; test: T. b. brucei growth Maes; format: cell-based, Trypanosoma brucei brucei; conditions: non-toxic, positive in all T. brucei screens
# [16] = read-out: P. falciparum 3D7 asexual blood stage EC50 (Image) V. Avery
# [17] = read-out: P. falciparum K1 asexual blood stage EC50 (Image) V. Avery
# [18] = metabolite level change after treatment
structure (smiles),measurement,setting,value
"C[C@@H]1CC[C@H]2[C@@H](C)C(=O)O[C@@H]3O[C@@]4(C)CC[C@@H]1[C@]32OO4 [Artemisinin, reference compound]",EC50,[1],1 nM
same,EC50,[2]; [16],1 nM
same,EC50,[2]; [17],1 nM
same,IC50,[3],47 nM
same,EC50,[4],13 nM
same,EC50,[5],5 nM
same,EC50,"[6]; ref [62], read-out: gametocyte late stage (IV-V) luciferase EC50",26 nM
same,"Effects on asexual life cycle progression (treatment at ER, LR, T, S; merozoites; mitochondrial integrity)",[7],LR-X-S-X-o-o
same,EC50,[8]; read-out: P. falciparum 3D7 asexual blood stage EC50 (Image) Ayong,11.7 ± 1.4 nM
same,EC50,[8]; read-out: P. falciparum Dd2 asexual blood stage EC50 (Image) Ayong,5.3 ± 1.2 nM
same,EC50,[8]; read-out: P. falciparum FCR3 asexual blood stage EC50 (Image) Ayong,5 ± 0.4 nM
same,EC50,[8]; read-out: P. falciparum HB3 asexual blood stage EC50 (Image) Ayong,8.6 ± 1.2 nM
same,EC50,[8]; read-out: P. falciparum K1 asexual blood stage EC50 (Image) Ayong,3.5 ± 0.4 nM
same,EC50,[8]; read-out: P. falciparum W2 asexual blood stage EC50 (Image) Ayong,5.7 ± 0.5 nM
CSc1ccccc1C(=O)Nc1nc(-c2ccccn2)cs1 [MMV001246],Acetyllysine,"[9]; S2 Table Metabolomics, metabolite Acetyllysine",0.4532
same,N-acetyl-L-ornithine,"[9]; S2 Table Metabolomics, metabolite N-acetyl-L-ornithine",0.4087
same,N-carbamoyl-L-aspartate,"[9]; S2 Table Metabolomics, metabolite N-carbamoyl-L-aspartate",0.8167
same,NADPH,"[9]; S2 Table Metabolomics, metabolite NADPH",-0.6152
same,dAMP,"[9]; S2 Table Metabolomics, metabolite dAMP",0.5623
same,dCMP,"[9]; S2 Table Metabolomics, metabolite dCMP",1.316
same,dTDP,"[9]; S2 Table Metabolomics, metabolite dTDP",1.003
same,dTMP,"[9]; S2 Table Metabolomics, metabolite dTMP",1.155
same,dTTP,"[9]; S2 Table Metabolomics, metabolite dTTP",0.605
same,dihydroorotate,"[9]; S2 Table Metabolomics, metabolite dihydroorotate",0.8484
same,orotate,"[9]; S2 Table Metabolomics, metabolite orotate",-0.04882
same,DLH,"[9]; S2 Table Metabolomics, peptide DLH",-0.1638
same,DLS/SDL/SID,"[9]; S2 Table Metabolomics, peptide DLS/SDL/SID",-0.1191
same,PD,"[9]; S2 Table Metabolomics, peptide PD",1.085
same,PEE,"[9]; S2 Table Metabolomics, peptide PEE",0.2734
same,PVNF,"[9]; S2 Table Metabolomics, peptide PVNF",-0.2587
same,3-phosphoglycerate,"[9]; metabolite 3-phosphoglycerate, S2 Table Metabolomics",-0.3067
same,ADP-D-glucose,"[9]; metabolite ADP-D-glucose, S2 Table Metabolomics",0.2637
same,ATP,"[9]; metabolite ATP, S2 Table Metabolomics",-0.316
same,CDP,"[9]; metabolite CDP, S2 Table Metabolomics, change in metabolite level after compound treatment",1.161
same,D-sedoheptulose-1/7-phosphate,"[9]; metabolite D-sedoheptulose-1/7-phosphate, S2 Table Metabolomics, change in metabolite level after compound treatment",0.9582
same,FAD,"[9]; metabolite FAD, S2 Table Metabolomics",-0.06449
same,GMP,"[9]; metabolite GMP, S2 Table Metabolomics, change in metabolite level after compound treatment",-0.2602
same,NAD+,"[9]; metabolite NAD+, S2 Table Metabolomics",0.05063
same,NADP+,"[9]; metabolite NADP+, S2 Table Metabolomics",0.1259
same,Octoluse Bisphosphate,"[9]; metabolite Octoluse Bisphosphate, S2 Table Metabolomics, change in metabolite level after compound treatment",-0.02993
same,Pyroglutamic acid,"[9]; metabolite Pyroglutamic acid, S2 Table Metabolomics",-0.6363
same,UDP-D-glucose,"[9]; metabolite UDP-D-glucose, S2 Table Metabolomics",0.1597
same,UDP-D-glucuronate,"[9]; metabolite UDP-D-glucuronate, S2 Table Metabolomics",0.09079
same,UDP-N-acetyl-glucosamine,"[9]; metabolite UDP-N-acetyl-glucosamine, S2 Table Metabolomics",0.2113
same,UDP,"[9]; metabolite UDP, S2 Table Metabolomics, change in metabolite level after compound treatment",1.27
same,UMP,"[9]; metabolite UMP, S2 Table Metabolomics, change in metabolite level after compound treatment",-0.2249
same,UTP,"[9]; metabolite UTP, S2 Table Metabolomics, change in metabolite level after compound treatment",0.2071
same,a-ketoglutarate,"[9]; metabolite a-ketoglutarate, S2 Table Metabolomics",-0.3343
same,citrate/isocitrate,"[9]; metabolite citrate/isocitrate, S2 Table Metabolomics, change in metabolite level after compound treatment",0.6139
same,cytidine,"[9]; metabolite cytidine, S2 Table Metabolomics",-0.1132
same,dATP,"[9]; metabolite dATP, S2 Table Metabolomics",-0.2342
same,dGMP/AMP,"[9]; metabolite dGMP/AMP, S2 Table Metabolomics, change in metabolite level after compound treatment",0.5523
same,fumarate,"[9]; metabolite fumarate, S2 Table Metabolomics, change in metabolite level after compound treatment",0.07419
same,glucose-1/6-phosphate,"[9]; metabolite glucose-1/6-phosphate, S2 Table Metabolomics, change in metabolite level after compound treatment",0.3611
same,glycerate,"[9]; metabolite glycerate, S2 Table Metabolomics, change in metabolite level after compound treatment",-0.4138
same,guanine,"[9]; metabolite guanine, S2 Table Metabolomics, change in metabolite level after compound treatment",0.2842
same,guanosine,"[9]; metabolite guanosine, S2 Table Metabolomics, change in metabolite level after compound treatment",0.03562
same,hypoxanthine,"[9]; metabolite hypoxanthine, S2 Table Metabolomics",-0.2148
same,indole,"[9]; metabolite indole, S2 Table Metabolomics",-0.09781
same,inosine,"[9]; metabolite inosine, S2 Table Metabolomics, change in metabolite level after compound treatment",-0.005486
same,2_3-Diphosphoglyceric acid,[9]; [18],0.509
same,4-phosphopantothenate,[9]; [18],0.08862
same,6-phospho-D-gluconate,[9]; [18],0.2643
same,FMN,[9]; [18],0.1616
same,IMP,[9]; [18],0.3566
same,Pyrophosphate,[9]; [18],0.4487
same,Sedoheptoluse bisphosphate,[9]; [18],-0.09548
same,cyclic-AMP,[9]; [18],-0.2042
same,glutathione disulfide,[9]; [18],0.1188
same,lactate,[9]; [18],-0.259
same,myo-inositol,[9]; [18],-0.2589
same,nicotinate,"[9]; metabolite nicotinate, S2 Table Metabolomics",-0.09283
same,ornithine,"[9]; metabolite ornithine, S2 Table Metabolomics",0.2998
same,phosphoenolpyruvate,"[9]; metabolite phosphoenolpyruvate, S2 Table Metabolomics",-0.3081
same,pyruvate,"[9]; metabolite pyruvate, S2 Table Metabolomics, change in metabolite level after compound treatment",-0.1972
same,ribose-phosphate,"[9]; metabolite ribose-phosphate, S2 Table Metabolomics",-0.4595
same,sarcosine/alanine,"[9]; metabolite sarcosine/alanine, S2 Table Metabolomics, change in metabolite level after compound treatment",0.1583
same,sn-glycerol-3-phosphate,"[9]; metabolite sn-glycerol-3-phosphate, S2 Table Metabolomics",-0.08199
same,succinate/methylmalonic acid,"[9]; metabolite succinate/methylmalonic acid, S2 Table Metabolomics, change in metabolite level after compound treatment",0.009107
same,uridine,"[9]; metabolite uridine, S2 Table Metabolomics, change in metabolite level after compound treatment",0.08525
same,xanthosine,"[9]; metabolite xanthosine, S2 Table Metabolomics, change in metabolite level after compound treatment",-0.2265
same,PPI inhibitors of Atg8-Atg3 interaction,[10],PPI inhibitors
same,zone of inhibition at 1000 µM,[11],3 mm
same,EC50,[12],206 nM
"CCN(CC)CCCC(C)Nc1ccnc2cc(Cl)ccc12 (centres unmarked) [Chloroquine, reference compound]",EC50,[2]; [16],3 nM
same,EC50,[2]; [17],199 nM
same,IC50,[3],125 nM
same,EC50,[4],77 nM
same,fold change (IC50normal/ IC50hypoxia),[13],1.6
same,fold change (IC50reduced/IC50normal),[13],2.3
same,IC50,"[13]; 3D7, read-out: P. falciparum 3D7 IC50 1% O2, 1% O2 hypoxia",7 nM
same,IC50,"[13]; 3D7, read-out: P. falciparum 3D7 IC50 5% O2",11 nM
same,IC50,"[13]; 3D7, read-out: P. falciparum 3D7 IC50 HCO3- (2g/L), standard media",16 nM
same,IC50,"[13]; 3D7, HCO3- reduced media, read-out: P. falciparum 3D7 IC50 HCO3- reduced",36 nM
same,IC50,"[6]; ref [69], read-out: late stage gametocyte luciferase, no inhibition up to",> 10000 nM
same,EC50,[14],209 nM
same,"Effects on asexual life cycle progression (treatment at ER, LR, T, S; merozoites; mitochondrial integrity)",[7],LR-X-S-o-o-o
CN(C)CCCNCc1ccc(-c2ccc(F)c(Cl)c2)o1 [MMV020505],Selectivity Index T. brucei screens,[15],> 10
